Assay results taken from US9434756B2, “Crystalline 4′-epidaunorubicin hydrochloride and use thereof” (Heraeus Precious Metals GmbH & Co. KG, priority 2009, dated 2016).

Experiments:
[1] = Solubility of 4′-epidaunorubicin hydrochloride (stated in words, no method given); type: physicochemical
[2] = Thermal stability / decomposition of 4′-epidaunorubicin hydrochloride crystals (thermogravimetric analysis); type: physicochemical; details: for temperature at which the product decomposed: crystals obtained in the example
Source text: FIG. 2 is a graph showing the thermogravimetric analysis (TGA) of 4′-epidaunorubicin hydrochloride. The data were obtained using the instrument NETZSCH TG 209 (sample mass: […], range: 24.0/10.0 (K/min)/250.0, crucible: Al2O3).

SMILES: COc1cccc2c1C(=O)c1c(O)c3c(c(O)c1C2=O)C[C@@](O)(C(C)=O)C[C@@H]3O[C@H]1C[C@H](N)[C@@H](O)[C@H](C)O1.Cl [4′-epidaunorubicin hydrochloride]
- solubility of amorphously precipitated material ([1]; amorphous precipitate, solvent not stated): only purely soluble
- solubility in methanol ([1]; methanol, crystalline form versus amorphous form, hydrochloride): improved solubility in methanol
- thermal stability ([2]; crystalline form): high thermal stability
- temperature at which the product decomposed ([2]; listed as Example 1, hydrochloride): 191 °C
- temperature at which the product decomposed ([2]; listed as Example 2, hydrochloride): 191 °C
- temperature at which the product decomposed ([2]; listed as Example 3, hydrochloride): 190 °C
- temperature at which the product decomposed ([2]; listed as Example 4, hydrochloride): 190 °C
